Test results as given in patent US7713968B2, “Substituted arylcyclopentenes as therapeutic agents” (Allergan, Inc., priority 2008, dated 2010).

Test system: lashes and adjacent hairs of the treated eye
Experiment: Observation of lashes in glaucoma patients treated with bimatoprost in one eye
Assay type: in vivo
Details: glaucoma patient treated in only one eye
Source text: In the course of treating patients having glaucoma, treatment may only be appropriate in one eye. […] The lash appearance on the lids of the treated eyes would have appeared quite attractive if it represented a bilateral phenomenon. As a result of its asymmetric nature, the long lashes on one side could be construed as disturbing from a cosmetic standpoint. A systemic examination was preformed as a result of the asymmetric phenomenon. It soon became apparent that this altered appearance was not an isolated finding. […] Definite differences could be identified to varying degrees in the lashes and adjacent hairs of all patients who were taking the drug on a unilateral basis for longer than 6 months.
The changes in the lashes were apparent on gross inspection in several patients once attention was focused on the issue. In those with light colored hair and lashes, the differences were only seen easily with the aid of the high magnification and lighting capabilities of the slit lamp biomicroscope. In the course of glaucoma follow-up examination, attention is generally immediately focused on the eye itself. As a result of the high power magnification needed only one eye is seen at a time and the eye is seen at a high enough power that the lashes are not in focus. […]

CCNC(=O)CCC/C=C\C[C@@H]1[C@@H](/C=C/[C@@H](O)CCc2ccccc2)[C@H](O)C[C@@H]1O [bimatoprost]
lashes in the treated eye compared with the non-treated eye: longer, thicker, and fuller
